Columns and labels:
TNF-α [1] = experiment: Inhibition of TNF-α secretion in LPS stimulated peripheral blood mononuclear cells; type: cell-based; details: LPS stimulated human PBMC, 18 hours, ELISA; read-out: The median inhibition concentration (IC50, nM) of TNF-α
Experimental: (§1) To study the effect of compounds of the present invention in vitro, the inhibition of IL-1β and TNF-α secretion was determined using the following procedure:
(§2) Cytokine production was measured in the media from lipopolysaccharide (LPS) stimulated peripheral blood mononuclear cells. The mononuclear cells were isolated from human peripheral blood by Lymphoprep® (Nycomed, Norway) fractionation and suspended in RPMI 1640 (growth medium) with foetal calf serum (FCS, 2%), at a concentration of 5×10^5 cells/ml. The cells were incubated in 24-well tissue culture plates in 1 ml aliquots. Test compounds were dissolved in dimethylsulfoxide (DMSO, 10 mM) and were diluted with the medium. Compounds were added to the cells for 30 minutes, then LPS ([…] final concentration) was added. The plates were incubated for 18 hours, and the concentration of IL-1β and TNF-α in the medium was determined by enzyme-linked immunosorbent assays. The median inhibitory concentrations (IC50) of the compounds were calculated.

IL-1β = experiment: Inhibition of IL-1β secretion in LPS stimulated peripheral blood mononuclear cells; type: cell-based; details: LPS stimulated human PBMC, 18 hours, ELISA; read-out: The median inhibition concentration (IC50, nM) of IL-1β
Experimental: as §1, §2

TNF-α [2] = experiment: In vivo screening model of LPS induced TNF-α response in mice; details: Mus musculus, po, 1 mg/kg p.o., 1 hour prior to LPS, plasma TNF-α 80-90 minutes after LPS, read-out: In vivo inhibition of LPS induced TNF-α production (in %)
Experimental: In Vivo Screening Model of LPS Induced TNF-α Response in Mice
To study the effect of compounds of the present invention in vivo, an in vivo screening model of LPS induced TNF-α response in mice was set up as follows: Groups of 6 mice (C3H/HeN, female, about 8 weeks (20 g), Bomholtgaard) were dosed with test compounds in suspension vehicle 1 hour prior to LPS administration (LPS from E. coli 055:B5, L-4005, Sigma). At time 0, the mice were dosed ip with 1.0 mg LPS/kg. After anesthetization with Hypnorm/Dormicum, the mice were bled from the periorbital venous plexus 80-90 minutes after LPS administration. The blood samples were sampled in EDTA stabilised tubes and centrifuged at 4000 rpm for 10 minutes at 4° C. The plasma level of TNF-α was analysed by ELISA. Compound 156 of WO 98/32730 was used as reference compound. The plasma level of TNF-α was determined using a sandwich ELISA. Microtiter plates were coated with a monoclonal antibody against mouse TNF-α, washed and blocked with a casein buffer. Samples of mouse TNF-α recombinant standards were added to the wells of the microtiter plates and incubated. All standards were tested in triplicate, all plasma samples in single. After sample and standard incubation, the plates were washed and incubated with biotinylated polyclonal secondary antibody against mouse TNF-α and washed. Enzyme conjugate was added to all wells and incubated. Substrate was added and the enzyme/substrate reaction stopped after 15 minutes at room temperature with 1M H2SO4. The colour development (OD) was measured at 450 nm on an ELISA reader and the background OD at 620 nm was subtracted. […] The results of the tested compounds are indicated as a percentage inhibition compared to an LPS treated control group. Compounds were tested at 1 mg/kg (p.o.). The Mann-Whitney test was used to compare drug treated groups to the LPS treated control group (p<0.05).

SMILES | IC50 (TNF-α [1]) | IC50 (IL-1β) | inhibition in vivo at 1 mg/kg (TNF-α [2])
Cc1ccc(-n2cc(CCO)nn2)cc1C(=O)c1ccc(Nc2ccc(F)cc2Cl)cc1Cl [Compound 118, [2-Chloro-4-(2-chloro-4-fluoro-phenylamino)-phenyl]-{5-[4-(2-hydroxy-ethyl)-[1,2,3]triazol-1-yl]-2-methyl-phenyl}-methanone] | 0.9 nM | 1.3 nM | –
Cc1ccc(-c2cn(CCO)nn2)cc1C(=O)c1ccc(Nc2ccc(F)cc2)cc1Cl [Compound 122, [2-Chloro-4-(4-fluoro-phenylamino)-phenyl]-{5-[1-(2-hydroxy-ethyl)-1H-[1,2,3]triazol-4-yl]-2-methyl-phenyl}-methanone] | 0.9 nM | 1.4 nM | 96%
Cc1ccc(-c2cn(CC(=O)N3CCCC3)nn2)cc1C(=O)c1ccc(Nc2ccc(F)cc2F)cc1Cl [Compound 114, 2-(4-{3-[2-Chloro-4-(2,4-difluoro-phenylamino)-benzoyl]-4-methyl-phenyl}-[1,2,3]triazol-1-yl)-1-pyrrolidin-1-yl-ethanone] | 0.3 nM | 0.4 nM | 86%
Cc1ccc(-n2cc(CCO)nn2)cc1C(=O)c1ccc(Nc2ccc(F)cc2F)cc1Cl [Compound 128, [2-Chloro-4-(2,4-difluoro-phenylamino)-phenyl]-{5-[4-(2-hydroxy-ethyl)-[1,2,3]triazol-1-yl]-2-methyl-phenyl}-methanone] | 1 nM | – | 95%
CCNC(=O)Cn1cc(-c2ccc(C)c(C(=O)c3ccc(Nc4ccc(F)cc4F)cc3Cl)c2)nn1 [Compound 112, 2-(4-{3-[2-Chloro-4-(2,4-difluoro-phenylamino)-benzoyl]-4-methyl-phenyl}-[1,2,3]triazol-1-yl)-N-ethyl-acetamide] | 0.3 nM | 5 nM | 49%
Cc1ccc(-c2cn(CCNS(C)(=O)=O)nn2)cc1C(=O)c1ccc(Nc2ccc(F)cc2F)cc1Cl [Compound 109, N-[2-(4-{3-[2-Chloro-4-(2,4-difluoro-phenylamino)-benzoyl]-4-methyl-phenyl}-[1,2,3]triazol-1-yl)-ethyl]-methanesulfonamide] | 1.2 nM | 1.9 nM | 79%
COc1ccc(-c2cn(CCO)nn2)cc1C(=O)c1ccc(Nc2ccc(F)cc2F)cc1Cl [Compound 120, [2-Chloro-4-(2,4-difluoro-phenylamino)-phenyl]-{5-[1-(2-hydroxy-ethyl)-1H-[1,2,3]triazol-4-yl]-2-methoxy-phenyl}-methanone] | 0.8 nM | 5 nM | –
Cc1ccc(-n2cc(CCN3CCN(C)CC3)nn2)cc1C(=O)c1ccc(Nc2ccc(F)cc2F)cc1Cl [Compound 139, [2-Chloro-4-(2,4-difluoro-phenylamino)-phenyl]-(2-methyl-5-{4-[2-(4-methyl-piperazin-1-yl)-ethyl]-[1,2,3]triazol-1-yl}-phenyl)-methanone] | 0.5 nM | 1.6 nM | –
CC(=O)c1cn(-c2ccc(C)c(C(=O)c3ccc(Nc4ccc(F)cc4F)cc3Cl)c2)nn1 [Compound 130, 1-(1-{3-[2-Chloro-4-(2,4-difluoro-phenylamino)-benzoyl]-4-methyl-phenyl}-1H-[1,2,3]triazol-4-yl)-ethanone] | 0.6 nM | 1.3 nM | –
CCCNCCc1cn(-c2ccc(C)c(C(=O)c3ccc(Nc4ccc(F)cc4F)cc3Cl)c2)nn1 [Compound 142, [2-Chloro-4-(2,4-difluoro-phenylamino)-phenyl]-{2-methyl-5-[4-(2-propylamino-ethyl)-[1,2,3]triazol-1-yl]-phenyl}-methanone] | 0.8 nM | 1 nM | –
CCOC(=O)Cn1cc(-c2ccc(C)c(C(=O)c3ccc(Nc4ccc(F)cc4F)cc3Cl)c2)nn1 [Compound 110, (4-{3-[2-Chloro-4-(2,4-difluoro-phenylamino)-benzoyl]-4-methyl-phenyl}-[1,2,3]triazol-1-yl)-acetic acid ethyl ester] | 3.6 nM | 6.3 nM | –
Cc1ccccc1Nc1ccc(C(=O)c2cc(-n3cc(CCO)nn3)ccc2C)c(Cl)c1 [Compound 117, (2-Chloro-4-o-tolylamino-phenyl)-{5-[4-(2-hydroxy-ethyl)-[1,2,3]triazol-1-yl]-2-methyl-phenyl}-methanone] | 1.1 nM | 1.6 nM | –
Cc1ccc(-n2cc(CCN3CCOCC3)nn2)cc1C(=O)c1ccc(Nc2ccc(F)cc2F)cc1Cl [Compound 138, [2-Chloro-4-(2,4-difluoro-phenylamino)-phenyl]-{2-methyl-5-[4-(2-morpholin-4-yl-ethyl)-[1,2,3]triazol-1-yl]-phenyl}-methanone] | 2 nM | 3.2 nM | –
Cc1cc(F)ccc1Nc1ccc(C(=O)c2cc(-n3cc(CCO)nn3)ccc2C)c(Cl)c1 [Compound 143, [2-Chloro-4-(4-fluoro-2-methyl-phenylamino)-phenyl]-{5-[4-(2-hydroxy-ethyl)-[1,2,3]triazol-1-yl]-2-methyl-phenyl}-methanone] | 1 nM | 4 nM | –
Cc1ccc(-n2cc(CNC(N)=O)nn2)cc1C(=O)c1ccc(Nc2ccc(F)cc2F)cc1Cl [Compound 137, (1-{3-[2-Chloro-4-(2,4-difluoro-phenylamino)-benzoyl]-4-methyl-phenyl}-1H-[1,2,3]triazol-4-ylmethyl)-urea] | 0.3 nM | 1 nM | –
Cc1ccc(-n2cc(C(C)(C)O)nn2)cc1C(=O)c1ccc(Nc2ccc(F)cc2F)cc1Cl [Compound 129, [2-Chloro-4-(2,4-difluoro-phenylamino)-phenyl]-{5-[4-(1-hydroxy-1-methyl-ethyl)-[1,2,3]triazol-1-yl]-2-methyl-phenyl}-methanone] | 1.4 nM | – | 83%
Cc1ccc(-n2cc(CCNCCO)nn2)cc1C(=O)c1ccc(Nc2ccc(F)cc2F)cc1Cl [Compound 141, [2-Chloro-4-(2,4-difluoro-phenylamino)-phenyl]-(5-{4-[2-(2-hydroxy-ethylamino)-ethyl]-[1,2,3]triazol-1-yl}-2-methyl-phenyl)-methanone] | 0.6 nM | 0.6 nM | –
CCN(CC)CCc1cn(-c2ccc(C)c(C(=O)c3ccc(Nc4ccc(F)cc4F)cc3Cl)c2)nn1 [Compound 140, [2-Chloro-4-(2,4-difluoro-phenylamino)-phenyl]-{5-[4-(2-diethylamino-ethyl)-[1,2,3]triazol-1-yl]-2-methyl-phenyl}-methanone] | 0.8 nM | 2 nM | –
Cc1ccc(-c2cn(CC3COC(C)(C)O3)nn2)cc1C(=O)c1ccc(Nc2ccc(F)cc2F)cc1Cl (centres unmarked) [Compound 105, [2-Chloro-4-(2,4-difluoro-phenylamino)-phenyl]-{5-[1-(2,2-dimethyl-[1,3]dioxolan-4-ylmethyl)-1H-[1,2,3]triazol-4-yl]-2-methyl-phenyl}-methanone] | 1.4 nM | – | –
Cc1cc(Cl)ccc1Nc1ccc(C(=O)c2cc(-n3cc(CCO)nn3)ccc2C)c(Cl)c1 [Compound 145, [2-Chloro-4-(4-chloro-2-methyl-phenylamino)-phenyl]-{5-[4-(2-hydroxy-ethyl)-[1,2,3]triazol-1-yl]-2-methyl-phenyl}-methanone] | 2 nM | 5 nM | –
Cc1ccc(-n2cc(CCN)nn2)cc1C(=O)c1ccc(Nc2ccc(F)cc2F)cc1Cl [Compound 136, {5-[4-(2-Amino-ethyl)-[1,2,3]triazol-1-yl]-2-methyl-phenyl}-[2-chloro-4-(2,4-difluoro-phenylamino)-phenyl]-methanone] | 1.3 nM | 1.6 nM | –
Cc1ccc(-c2cn(CC(=O)NC(C)(C)CO)nn2)cc1C(=O)c1ccc(Nc2ccc(F)cc2F)cc1Cl [Compound 113, 2-(4-{3-[2-Chloro-4-(2,4-difluoro-phenylamino)-benzoyl]-4-methyl-phenyl}-[1,2,3]triazol-1-yl)-N-(2-hydroxy-1,1-dimethyl-ethyl)-acetamide] | 0.6 nM | 6.3 nM | –

— patent US8293772B2, “Triazole substituted aminobenzophenone compounds” (Leo Pharma A/S, priority 2004, dated 2012)
